Data: ChEMBL document CHEMBL4265969, “Design, synthesis and biological evaluation of (2S,3R,4R,5S,6R)-5-fluoro-6-(hydroxymethyl)-2-aryltetrahydro-2H-pyran-3,4-diols as potent and orally active SGLT dual inhibitors” (Bioorg Med Chem Lett, 2018)
pIC50: −log10 of the molar value. Calls of active or inactive are those of the source. The rule behind the calls is not given here.

Tests used:
[1] = Volume of distribution at steady state in Sprague-Dawley rat at 2 mg/kg, iv; format: ADME, organism-based; settings: in vivo, read-out: Vdss
Rattus norvegicus [2] = assay: Antidiabetic activity in Sprague-Dawley rat assessed as decrease in postprandial blood glucose AUC at 1 mg/kg, po administered 1 hr prior to glucose challenge measured up to 120 mins by OGTT relative to control; format: functional; design: scale not given: the % may be the effect or the level left
[3] = Half life in cynomolgus monkey at 10 mg/kg, po; format: ADME, organism-based, Macaca fascicularis; settings: in vivo
[4] = Half life in Sprague-Dawley rat at 10 mg/kg, po; format: ADME, organism-based; settings: in vivo
Salmonella typhimurium = assay: Genotoxicity in Salmonella typhimurium TA98; format: toxicity, organism-based; settings: salmonella enterica subsp. enterica serovar typhimurium
[5] = Half life in Sprague-Dawley rat at 2 mg/kg, iv; format: ADME, organism-based; settings: in vivo
[6] = Metabolic stability in rat liver microsomes at 1 uM after 10 mins in presence of NADPH; format: ADME, microsome; settings: read-out: Stability
[7] = Metabolic stability in human liver microsomes at 1 uM after 10 mins in presence of NADPH; format: ADME, microsome; settings: read-out: Stability
[8] = Metabolic stability in mouse liver microsomes at 1 uM after 10 mins in presence of NADPH; format: ADME, microsome; settings: read-out: Stability
[9] = Half life in cynomolgus monkey at 2 mg/kg, iv; format: ADME, organism-based, Macaca fascicularis; settings: in vivo
[10] = AUC (0 to infinity) in Sprague-Dawley rat at 10 mg/kg, po; format: ADME, organism-based; design: dose 10 mg/kg, route oral, time infinity; settings: in vivo
[11] = Half life in monkey hepatocytes at 1 uM; format: ADME, cell-based, Macaca mulatta, Hepatocyte; settings: rhesus monkey
Mus musculus [12] = assay: In vivo inhibition of SGLT2 in db/db mouse assessed as increase in urine glucose excretion at 10 mg/kg, po after 24 hrs; format: functional, organism-based
[13] = target: T1, Sodium/glucose cotransporter 2 (Rattus norvegicus, UniProt P53792); assay: Inhibition of rat SGLT2 expressed in CHOK1 cells assessed as reduction in Na-dependent [14C]-AMG uptake preincubated for 10 mins followed by [14C]-AMG addition measured after 2 hrs by TopCount method; format: cell-based
T1 sequence (P53792 whole entry): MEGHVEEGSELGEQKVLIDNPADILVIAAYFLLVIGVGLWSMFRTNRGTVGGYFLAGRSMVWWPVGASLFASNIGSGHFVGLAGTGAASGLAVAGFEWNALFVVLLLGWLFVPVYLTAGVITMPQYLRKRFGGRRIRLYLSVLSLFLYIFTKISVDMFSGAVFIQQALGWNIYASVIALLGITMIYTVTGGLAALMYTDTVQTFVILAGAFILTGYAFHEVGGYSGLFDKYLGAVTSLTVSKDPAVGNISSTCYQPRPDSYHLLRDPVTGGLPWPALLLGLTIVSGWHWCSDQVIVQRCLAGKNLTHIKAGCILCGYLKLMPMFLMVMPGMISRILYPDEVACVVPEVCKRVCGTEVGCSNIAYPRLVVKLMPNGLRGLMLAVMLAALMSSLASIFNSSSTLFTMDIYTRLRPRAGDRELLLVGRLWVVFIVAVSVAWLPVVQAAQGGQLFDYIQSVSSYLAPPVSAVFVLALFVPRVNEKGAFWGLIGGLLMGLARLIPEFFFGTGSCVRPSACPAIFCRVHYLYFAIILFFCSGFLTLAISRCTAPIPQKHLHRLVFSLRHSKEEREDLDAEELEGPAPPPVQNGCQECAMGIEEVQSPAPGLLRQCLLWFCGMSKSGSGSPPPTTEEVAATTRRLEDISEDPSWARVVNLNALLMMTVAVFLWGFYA

[14] = Oral bioavailability in Sprague-Dawley rat at 10 mg/kg; format: ADME, organism-based; settings: in vivo
[15] = Volume of distribution at steady state in cynomolgus monkey at 2 mg/kg, iv; format: ADME, organism-based, Macaca fascicularis; settings: in vivo, read-out: Vdss
[16] = target: Voltage-gated inwardly rectifying potassium channel KCNH2 (Homo sapiens, UniProt Q12809); assay: Inhibition of human ERG at 50 uM
Chain of Voltage-gated inwardly rectifying potassium channel KCNH2 (Q12809 whole entry): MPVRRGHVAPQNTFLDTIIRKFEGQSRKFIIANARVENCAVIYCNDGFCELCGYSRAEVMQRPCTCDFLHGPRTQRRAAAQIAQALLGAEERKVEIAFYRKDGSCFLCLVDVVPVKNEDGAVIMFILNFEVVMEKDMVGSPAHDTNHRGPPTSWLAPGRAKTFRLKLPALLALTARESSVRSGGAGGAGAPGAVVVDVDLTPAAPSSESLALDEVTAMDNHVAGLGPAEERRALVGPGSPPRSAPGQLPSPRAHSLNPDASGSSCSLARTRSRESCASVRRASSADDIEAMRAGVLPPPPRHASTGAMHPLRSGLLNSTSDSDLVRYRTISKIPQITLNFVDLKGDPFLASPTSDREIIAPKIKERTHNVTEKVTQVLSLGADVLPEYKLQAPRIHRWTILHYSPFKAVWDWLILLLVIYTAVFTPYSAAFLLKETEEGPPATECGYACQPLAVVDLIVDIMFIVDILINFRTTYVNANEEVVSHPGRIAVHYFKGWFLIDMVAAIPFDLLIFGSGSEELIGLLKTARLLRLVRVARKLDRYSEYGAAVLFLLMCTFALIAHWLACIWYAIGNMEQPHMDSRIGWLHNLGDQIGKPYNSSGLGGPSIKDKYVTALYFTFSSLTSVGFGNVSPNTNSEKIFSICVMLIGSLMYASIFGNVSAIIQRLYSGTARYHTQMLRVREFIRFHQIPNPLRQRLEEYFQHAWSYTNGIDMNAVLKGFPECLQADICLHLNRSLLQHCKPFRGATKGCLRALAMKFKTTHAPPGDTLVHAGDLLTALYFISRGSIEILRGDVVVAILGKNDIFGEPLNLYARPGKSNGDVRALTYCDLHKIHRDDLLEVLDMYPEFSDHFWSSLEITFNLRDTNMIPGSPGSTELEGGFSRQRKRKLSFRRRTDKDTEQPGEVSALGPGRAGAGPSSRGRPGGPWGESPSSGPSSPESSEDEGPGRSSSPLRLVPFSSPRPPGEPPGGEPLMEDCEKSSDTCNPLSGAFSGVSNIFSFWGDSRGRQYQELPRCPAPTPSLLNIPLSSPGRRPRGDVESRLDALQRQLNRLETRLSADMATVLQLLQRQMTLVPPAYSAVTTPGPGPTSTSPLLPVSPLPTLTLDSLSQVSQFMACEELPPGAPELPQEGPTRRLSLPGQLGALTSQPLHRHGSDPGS

[17] = Oral bioavailability in cynomolgus monkey at 10 mg/kg; format: ADME, organism-based, Macaca fascicularis; settings: in vivo
[18] = Tmax in Sprague-Dawley rat at 10 mg/kg, po; format: ADME, organism-based; settings: in vivo
[19] = target: T2, Sodium/glucose cotransporter 1 (Rattus norvegicus, UniProt P53790); assay: Inhibition of rat SGLT1 expressed in CHOK1 cells assessed as reduction in Na-dependent [14C]-AMG uptake preincubated for 10 mins followed by [14C]-AMG addition measured after 2 hrs by TopCount method; format: cell-based
T2 sequence (P53790 whole entry): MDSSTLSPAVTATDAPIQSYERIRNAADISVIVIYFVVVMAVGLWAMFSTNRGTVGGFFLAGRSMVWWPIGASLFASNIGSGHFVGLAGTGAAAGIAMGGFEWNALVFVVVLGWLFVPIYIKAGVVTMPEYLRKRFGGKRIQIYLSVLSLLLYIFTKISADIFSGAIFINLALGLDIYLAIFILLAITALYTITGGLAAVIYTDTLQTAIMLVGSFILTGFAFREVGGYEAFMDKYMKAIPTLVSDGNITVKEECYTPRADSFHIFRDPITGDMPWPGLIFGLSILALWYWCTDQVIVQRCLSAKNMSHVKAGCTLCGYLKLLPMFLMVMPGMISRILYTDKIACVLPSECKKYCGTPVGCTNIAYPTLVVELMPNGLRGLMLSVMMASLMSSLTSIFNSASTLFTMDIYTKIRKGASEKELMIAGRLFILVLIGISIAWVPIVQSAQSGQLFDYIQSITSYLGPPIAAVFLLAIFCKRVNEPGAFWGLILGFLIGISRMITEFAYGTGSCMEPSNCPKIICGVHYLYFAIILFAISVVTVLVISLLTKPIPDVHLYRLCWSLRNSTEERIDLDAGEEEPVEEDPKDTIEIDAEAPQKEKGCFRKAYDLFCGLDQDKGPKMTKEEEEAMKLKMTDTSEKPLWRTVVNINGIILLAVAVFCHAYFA

[20] = Cmax in cynomolgus monkey at 10 mg/kg, po; format: ADME, organism-based, Macaca fascicularis; design: dose 10 mg/kg, route oral; settings: in vivo
[21] = Half life in Sprague-Dawley rat hepatocytes at 1 uM; format: ADME, cell-based, Hepatocyte
Rattus norvegicus [22] = assay: Anti-hyperglycemic effect in ZDF rat assessed as decrease in fed blood glucose AUC at 10 mg/kg, po measured up to 24 hrs relative to control; format: functional; design: scale not given: the % may be the effect or the level left
[23] = Clearance in Sprague-Dawley rat at 2 mg/kg, iv; format: ADME, organism-based; settings: in vivo
[24] = Cmax in Sprague-Dawley rat at 10 mg/kg, po; format: ADME, organism-based; design: dose 10 mg/kg, route oral; settings: in vivo
Rattus norvegicus [25] = assay: Antidiabetic activity in Sprague-Dawley rat assessed as decrease in postprandial blood glucose level administered orally 1 hr prior to glucose challenge measured up to 120 mins by OGTT; format: functional, organism-based
Mus musculus [26] = assay: Anti-hyperglycemic effect in db/db mouse assessed as decrease in fed blood glucose AUC at 10 mg/kg, po measured up to 24 hrs relative to control; format: functional; design: scale not given: the % may be the effect or the level left
[27] = AUC (0 to infinity) in cynomolgus monkey at 10 mg/kg, po; format: ADME, organism-based, Macaca fascicularis; design: dose 10 mg/kg, time infinity, route oral; settings: in vivo
[28] = Clearance in cynomolgus monkey at 2 mg/kg, iv; format: ADME, organism-based, Macaca fascicularis; settings: in vivo
[29] = Tmax in cynomolgus monkey at 10 mg/kg, po; format: ADME, organism-based, Macaca fascicularis; settings: in vivo
[30] = Half life in human hepatocytes at 1 uM; format: ADME, cell-based, Hepatocyte
[31] = Half life in dog hepatocytes at 1 uM; format: ADME, cell-based, Canis lupus familiaris, Hepatocyte

Vd [1]: 1.07 L/kg | half-life [3]: 5.6 h | half-life [4]: 1.44 h | half-life [5]: 0.41 h | remaining at 10 min, 1 µM [6]: 66% | remaining at 10 min, 1 µM [7]: 95% | remaining at 10 min, 1 µM [8]: 82% | half-life [9]: 7.9 h | AUC(0-inf) [10]: 1600 ng·h/mL | half-life at 1 µM [11]: 2.2 h | pIC50 [13]: 7.80 | bioavailability [14]: 48.2% | Vd [15]: 3.05 L/kg | bioavailability [17]: 56% | Tmax [18]: 0.3 h | pIC50 [19]: 7.17 | Cmax [20]: 1490 ng/mL | half-life at 1 µM [21]: 1.2 h | clearance [23]: 50.9 mL/min/kg | Cmax [24]: 990 ng/mL | AUC(0-inf) [27]: 6090 ng·h/mL | clearance [28]: 15.5 mL/min/kg | Tmax [29]: 1.33 h | half-life at 1 µM [30]: 5.4 h | half-life at 1 µM [31]: 8 h
Compound: COc1c([C@@H]2O[C@H](CO)[C@@H](F)[C@H](O)[C@H]2O)cc(Cc2ccc3c(c2)OCCO3)c2c1CCO2
Activity (Rattus norvegicus [2]): 32.4% | Activity (Salmonella typhimurium): Non-Toxic | inhibition (Mus musculus [12]): Active | inhibition (INH) [16]: Not Active | Activity (Rattus norvegicus [22]): 56.8% | Activity (Rattus norvegicus [25]): Dose-dependent effect | Activity (Mus musculus [26]): 57.4%
